{
  "source": "paper PMC6784244",
  "about": "(Toxins, 2019)",
  "key": {"[1]": {"tested_on": "C. perfringens", "type": "cell-based, Clostridium perfringens"}, "[2]": {"tested_on": "F. oxysporum (DSMZ 62316)", "conditions": "DSMZ 62316, pH 7"}, "[3]": {"tested_on": "Vancomycin-resistant Enterococcus faecalis (DSMZ 13591)"}, "[4]": {"tested_on": "human erythrocytes", "conditions": "pH 7.4"}, "[5]": {"tested_on": "Aspergillus flavus (DSMZ 1959)", "conditions": "DSMZ 1959, pH 7"}, "[6]": {"tested_on": "Methicillin-resistant S. aureus strain MRSA USA300"}, "[7]": {"tested_on": "F. verticillioides (DSMZ 62264)", "conditions": "DSMZ 62264, pH 7"}, "[8]": {"tested_on": "C. perfringens", "type": "cell-based, Clostridium perfringens", "remark": "listed apart in the source"}, "[9]": {"tested_on": "Fusarium graminearum (DSMZ 1095)", "conditions": "DSMZ 1095, pH 7"}, "[10]": {"tested_on": "A. ochraceus (DSMZ 824)", "conditions": "DSMZ 824, pH 7"}, "[11]": {"tested_on": "C. perfringens", "type": "cell-based, Clostridium perfringens", "remark": "listed apart in the source"}, "[12]": {"tested_on": "Pseudomonas aeruginosa (ATCC CRM-9027)"}, "[13]": {"tested_on": "Penicillium verrucosum (DSMZ 12639)", "conditions": "DSMZ 12639, pH 7"}, "[14]": {"set-up": "species or system B. subtilis; key: -- indicates the absence of interaction", "conditions": "lipid monolayer on PBS pH 7.4, peptide 1 µM, extrapolated to delta pressure 0; -- = absence of interaction", "method": "(§1) Peptide–lipid interaction was evaluated using reconstituted lipid monolayer at the air–water interface as previously described. Pure prokaryotic and eukaryotic lipids used were: POPC (1-palmitoyl-2-oleoyl-glycero-3-phosphocholine), POPE (1-palmitoyl-2-oleoyl-sn-glycero-3-phosphoethanolamine), POPG (1-palmitoyl-2-oleoyl-sn-glycero-3-phospho-(1’-rac-glycerol), and cardiolipin, all from Avanti Polar Lipid (Alabama, USA). LTA (Lipoteichoic acid from B. subtilis) was obtained from Invivogen SAS (Toulouse, France). Pure lipids were reconstituted in chloroform:methanol (2:1, v:v) at 1 mg/mL and stored at −20 °C under nitrogen. The interaction and insertion of the ENN and BEA into lipids were evaluated through the measurement of their critical pressure of insertion as previously described. Briefly, lipids were spread using a 50 µL Hamilton’s syringe at the surface of 800 µL of sterile PBS creating a lipid monolayer at the air–water interface. Lipids were added until the surface pressure reached the desired value. After 5–10 min of incubation allowing evaporation of the solvent and stabilization of the initial surface pressure, 8 µL of ENN or BEA diluted in sterile PBS at 100 µM were injected into the 800 µL sub-phase of PBS under the lipid monolayer (pH 7.4, volume 800 µL) using a 10 µL Hamilton syringe giving a final concentration of peptides of 1 µM, preliminary experiments having shown that this concentration gave optimal insertion. The variation of the surface pressure caused by peptide injection was then continuously monitored using a fully automated microtensiometer (µTROUGH SX, Kibron Inc., Helsinki, Finland) until reaching equilibrium (maximal surface pressure increase being usually obtained after 15–25 min). The critical pressure of insertion of each peptide was determined by changing the initial pressure of lipid monolayer (from 10 and 30 mN/m) and measuring the variation of pressure caused by the insertion of the peptide. The critical pressure of insertion of each peptide in a particular lipid was determined graphically and calculated as the theoretical value of initial pressure of lipid monolayer not permissive to peptide insertion, i.e., causing a variation of pressure equal to 0 mN/m."}, "[15]": {"tested_on": "HEK (human normal epidermal keratinocytes)", "conditions": "48 h"}, "[16]": {"tested_on": "Clostridium perfringens (ATCC 13124)"}, "[17]": {"conditions": "lipid monolayer at air-water interface on PBS pH 7.4, peptide 1 µM, initial pressure 10-30 mN/m, extrapolated to delta pressure 0", "method": "as §1"}, "[18]": {"tested_on": "Mycobacterium smegmatis (mc2155, ATCC 700084)", "conditions": "mc2155, 72 h"}, "[19]": {"tested_on": "Bacillus subtilis (ATCC 6633)"}, "[20]": {"tested_on": "A. niger (ATCC 9142)", "conditions": "ATCC 9142, pH 7"}, "[21]": {"tested_on": "Stachybotrys chartarum (DSMZ 2144)", "conditions": "DSMZ 2144, pH 7"}, "[22]": {"tested_on": "Helicobacter pylori (ATCC 43504)"}, "[23]": {"tested_on": "Candida albicans (DSMZ 10697)", "conditions": "DSMZ 10697, 24 h, pH 7"}, "[24]": {"tested_on": "Staphylococcus aureus (ATCC CRM-6538P)"}, "[25]": {"tested_on": "Acinetobacter baumannii (CIP 110431)"}, "[26]": {"tested_on": "Escherichia coli (ATCC 8739)"}, "[27]": {"tested_on": "N87 (human gastric cell line)", "conditions": "48 h"}, "[28]": {"tested_on": "Nisin-resistant B. subtilis (DSMZ 347)"}, "[29]": {"set-up": "key: -- indicates the absence of interaction", "conditions": "lipid monolayer on PBS pH 7.4, peptide 1 µM, extrapolated to delta pressure 0; -- = absence of interaction", "method": "as §1"}, "[30]": {"conditions": "C. perfringens, 5 x MIC, 4 h, 37 °C, anaerobic, FM4-64FX membrane and DAPI DNA staining, confocal microscope"}},
  "note": "“And” between values parts separate entries of the source, which are not always exact repeats. Equal entries are not always repeated. Where two headings read alike, the source gives them in different places.",
  "data": [
    {"smiles": "CC(C)[C@H]1OC(=O)[C@H](Cc2ccccc2)N(C)C(=O)[C@@H](C(C)C)OC(=O)[C@H](Cc2ccccc2)N(C)C(=O)[C@@H](C(C)C)OC(=O)[C@H](Cc2ccccc2)N(C)C1=O", "note": "[BEA, Beauvericin]", "values": [
      {"measurement": "membrane depolarization at 100 µM", "setting": "[1]", "result": "59.1 ± 2.0", "unit": "%"},
      {"measurement": "membrane depolarization at four times their MIC", "setting": "[1]", "result": "63.8 ± 4.8", "unit": "%"},
      {"measurement": "membrane depolarization at their MIC", "setting": "[1]", "result": "38.3 ± 3.3% and 30–40%"},
      {"measurement": "MIC, F. oxysporum", "setting": "[2]", "result": ">100", "unit": "µM"},
      {"measurement": "MIC, E. faecalis", "setting": "[3]", "result": 12.5, "unit": "µM"},
      {"measurement": "HC50 (dose causing 50% hemolysis), Erythrocytes", "setting": "[4]", "result": "118.9 ± 15.8", "unit": "µM"},
      {"measurement": "MIC, A. flavus", "setting": "[5]", "result": ">100", "unit": "µM"},
      {"measurement": "MIC, S. aureus MRSA", "setting": "[6]", "result": "6.25 to 12.5", "unit": "µM"},
      {"measurement": "MIC, F. verticillioides", "setting": "[7]", "result": ">100", "unit": "µM"},
      {"measurement": "percentage of permeabilization at four times the MIC", "setting": "[8]", "result": "1.8 ± 2.8", "unit": "%"},
      {"measurement": "MIC, F. graminearum", "setting": "[9]", "result": 25, "unit": "µM"},
      {"measurement": "MIC, A. ochraceus", "setting": "[10]", "result": ">100", "unit": "µM"},
      {"measurement": "Known/possible target", "setting": "[11]", "result": "Protein biosynthesis"},
      {"measurement": "Observed Morphology", "setting": "[11]", "result": "• No cell elongation • DNA condensed in 1–4 circles per cells"},
      {"measurement": "MIC, P. aeruginosa", "setting": "[12]", "result": ">100", "unit": "µM"},
      {"measurement": "MIC, P. verrucosum", "setting": "[13]", "result": ">100", "unit": "µM"},
      {"measurement": "critical pressure of insertion, LTA", "setting": "[14]", "result": "--"},
      {"measurement": "IC50", "setting": "[15]", "result": "5.4 ± 0.9", "unit": "µM"},
      {"measurement": "MIC, C. perfringens", "setting": "[16]", "result": 6.25, "unit": "µM"},
      {"measurement": "critical pressure of insertion, POPC", "setting": "[17]", "result": 41.65, "unit": "mN/m"},
      {"measurement": "critical pressure of insertion, POPE", "setting": "[17]", "result": 32.46, "unit": "mN/m"},
      {"measurement": "MIC, M. smegmatis", "setting": "[18]", "result": 25, "unit": "µM"},
      {"measurement": "MIC, B. subtilis", "setting": "[19]", "result": "6.25 to 12.5", "unit": "µM"},
      {"measurement": "MIC, A. niger", "setting": "[20]", "result": ">100", "unit": "µM"},
      {"measurement": "MIC, S. chartarum", "setting": "[21]", "result": ">100", "unit": "µM"},
      {"measurement": "MIC, H. pylori", "setting": "[22]", "result": ">100", "unit": "µM"},
      {"measurement": "MIC, C. albicans", "setting": "[23]", "result": 6.25, "unit": "µM"},
      {"measurement": "MIC, S. aureus", "setting": "[24]", "result": 12.5, "unit": "µM"},
      {"measurement": "MIC, A. baumannii", "setting": "[25]", "result": ">100", "unit": "µM"},
      {"measurement": "MIC, E. coli", "setting": "[26]", "result": ">100", "unit": "µM"},
      {"measurement": "IC50", "setting": "[27]", "result": "27.5 ± 0.7", "unit": "µM"},
      {"measurement": "MIC, B. subtilis NR", "setting": "[28]", "result": "6.25 to 12.5", "unit": "µM"},
      {"measurement": "critical pressure of insertion, POPG", "setting": "[29]", "result": "--"}
    ]},
    {"smiles": "CN(C)[C@@H]1C(O)=C(C(N)=O)C(=O)[C@@]2(O)C(O)=C3C(=O)c4c(O)cccc4[C@@](C)(O)[C@H]3C[C@@H]12", "note": "[Tetracycline, reference compound]", "values": [
      {"measurement": "Observed Morphology", "setting": "[11]; [30]", "result": "• Some cell elongation (1.5–2 times compared to control) • DNA condensed in 1–4 circles per cells"}
    ]},
    {"smiles": "CO/N=C1\\CN(c2nc3c(cc2F)c(=O)c(C(=O)O)cn3C2CC2)CC1CN", "note": "(stereo not shown) [Gemifloxacin, reference compound]", "values": [
      {"measurement": "Observed Morphology", "setting": "[11]; [30]", "result": "• Elongated cells (5–6 times compared to control) • Decondensed DNA • Chain formation"}
    ]},
    {"smiles": "CC1(C)S[C@@H]2[C@H](NC(=O)[C@H](N)c3ccc(O)cc3)C(=O)N2[C@H]1C(=O)O", "note": "[Amoxicillin, reference compound]", "values": [
      {"measurement": "Observed Morphology", "setting": "[11]; [30]", "result": "• Elongated cells (5–6 times compared to control) • Normally condensed DNA"}
    ]},
    {"smiles": "CO[C@H]1/C=C/O[C@@]2(C)Oc3c(C)c(O)c4c(O)c(c(/C=N/N5CCN(C)CC5)c(O)c4c3C2=O)NC(=O)/C(C)=C\\C=C\\[C@H](C)[C@H](O)[C@@H](C)[C@@H](O)[C@@H](C)[C@H](OC(C)=O)[C@@H]1C", "note": "[Rifampicin, reference compound]", "values": [
      {"measurement": "Observed Morphology", "setting": "[11]; [30]", "result": "• No cell elongation • DNA condensed in one filament crossing the cells"}
    ]}
  ]
}
